Drawing on patent EP4741383A1, “COMPOUND AND USE THEREOF AS ANTI-CANCER DRUG” (Tyligand Bioscience (Shanghai) Limited, priority 2023, dated 2025), this text covers inhibition for three compounds.

The structures appear in SMILES notation. Where two headings read alike, the source gives them in different places.

Common to all, as to format: in vitro ADME
Data set [1] concerns the target T1, CYP2C8 (Homo sapiens, UniProt P10632).
T1 construct: tissue Corning or Xenotech; host or cells: human liver microsomes
T1 sequence (P10632 1-490): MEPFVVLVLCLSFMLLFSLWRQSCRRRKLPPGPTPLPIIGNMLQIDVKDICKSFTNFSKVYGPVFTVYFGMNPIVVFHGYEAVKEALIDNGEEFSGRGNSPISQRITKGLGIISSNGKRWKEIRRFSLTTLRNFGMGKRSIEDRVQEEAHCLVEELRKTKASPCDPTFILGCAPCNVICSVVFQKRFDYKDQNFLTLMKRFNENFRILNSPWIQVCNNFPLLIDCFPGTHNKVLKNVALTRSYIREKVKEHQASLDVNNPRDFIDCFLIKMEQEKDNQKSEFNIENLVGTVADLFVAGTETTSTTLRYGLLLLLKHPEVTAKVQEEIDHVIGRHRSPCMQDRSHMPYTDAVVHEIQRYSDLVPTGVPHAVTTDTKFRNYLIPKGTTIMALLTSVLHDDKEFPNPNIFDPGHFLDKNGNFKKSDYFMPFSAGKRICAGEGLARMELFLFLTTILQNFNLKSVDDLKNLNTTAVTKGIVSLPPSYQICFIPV
Briefly: CYP450 inhibition in human liver microsomes, CYP2C8. The note with it: pH 7.4, read-out: % CYP inhibition @ 10 µM 2C8. The source says: (§1) According to standard methods in the field for the study of cytochrome P450 enzyme systems, such as the method described in Kerns, Edward H. and Di Li et al., Drug-like Properties: Concepts, Structure Design and Methods: from ADME to Toxicity Optimization (2008), San Diego, Academic Press, and Lin, Tong et al., In Vitro Assessment of Cytochrome P450 Inhibition: Strategies for Increasing LC/MS-Based Assay Throughput Using a One-Point IC50 Method and Multiplexing High-Performance Liquid Chromatography (J. Pharm. Sci. 2007, 96 (9), 2485). The inhibitory effect of the disclosed compounds on the cytochrome P450 enzyme system was similarly examined below.
(§2) Human liver microsomes were purchased from Corning or Xenotech. The test compounds were evaluated by detecting the metabolism of substrates for different Cyp450 isoforms by human liver microsomes.
(§3) 0.1 M potassium phosphate buffer (K-buffer, pH 7.4) was pre-warmed.
(§4) 100 mM K-buffer was prepared by mixing 9.5 mL of stock solution A (1 M potassium dihydrogen phosphate, prepared by dissolving 136.5 g of potassium dihydrogen phosphate in 1 L of Milli-Q water) with 40.5 mL of stock solution B (1 M potassium hydrogen phosphate, prepared by dissolving 174.2 g of potassium hydrogen phosphate in 1 L of Milli-Q water). The total volume was adjusted to 500 mL with Milli-Q water, and the buffer was titrated to pH 7.4 using KOH or H3PO4.
(§5) Test compound solution and specific inhibitor solution (400× dilution) were prepared in a 96-well plate. For the test compound, 8 µL of 10 mM test compound was transferred into 12 µL of ACN. For specific inhibitors of CYP1A2, CYP2C9, and CYP2D6: 12 µL of 1 mM α-naphthoflavone, 10 µL of 40 mM sulfaphenazole, 10 µL of 10 mM quinidine, and 8 µL of DMSO were mixed. For specific inhibitors of CYP3A4, CYP2B6, CYP2C8, and CYP2C19: 8 µL of DMSO stock solution was added to 12 µL of ACN.
(§6) A 4× diluted NADPH solution was prepared by dissolving 66.7 mg of NADPH in 10 mL of 0.1 M K-buffer (pH 7.4). […]
For orientation: Liver microsomes are vesicles of endoplasmic reticulum, rich in cytochrome P450 enzymes.

Data set [2] concerns the target T2, CYP3A4 (Homo sapiens, UniProt P08684).
T2 construct: tissue Corning or Xenotech; host or cells: human liver microsomes
Briefly: CYP450 inhibition in human liver microsomes, CYP3A4 (midazolam and testosterone substrates).
Excerpt: as §1, §2, §3, §4, §5
A 4× diluted NADPH solution was prepared by dissolving 66.7 mg of NADPH in 10 mL of 0.1 M K-buffer (pH 7.4). Human liver microsome (HLM) solutions were prepared in K-buffer, wherein 0.1 mg/mL for CYP1A2, CYP2C9, CYP2D6, CYP3A4, and CYP2B6, 0.5 mg/mL for CYP2C19, 0.2 mg/mL for CYP2C8. 4× diluted substrate dilution solutions (2 mL per isozyme) were prepared in K-buffer (HLM was added on ice if required) with the following concentrations: 120 µM for CYP1A2, 40 µM for CYP2C9, 140 µM with 1.6 mg/mL HLM for CYP2C19, 40 µM for CYP2D6, 320 µM and 20 µM for CYP3A4 (two concentrations), 280 µM for CYP2B6, 40 µM with 0.4 mg/mL HLM for CYP2C8.
A 0.2 mg/mL HLM solution was prepared on ice (by adding 10 µL of 20 mg/mL stock to 990 µL of 0.1 M K buffer). To the assay wells, 400 µL of the 0.2 mg/mL HLM solution was added, followed by 2 µL of the 400× diluted test compound solution, which was added on ice to the designated wells. To the assay wells, 200 µL of the 0.2 mg/mL HLM solution was added, followed by 1 µL of the specific inhibitor solution, which was added on ice to the designated wells. The following solutions were added in duplicate to the 96-well analysis plate kept on ice: 30 µL of the 2× diluted test compound solution and the specific inhibitor solution were added to the 0.2 mg/mL HLM solution, 15 µL of the 4× diluted substrate solution was added. The 96-well assay plate and the NADPH solution were pre-incubated at 37 °C for 5 min. The reaction was initiated by adding 15 µL of the pre-warmed 8 mM NADPH solution to the assay plate. Reactions were performed at 37 °C for the following durations according to the P450 isoform: 5 min for CYP3A4, 10 min for CYP1A2, CYP2B6, CYP2C8, CYP2C9, and CYP2D6, 45 min for CYP2C19. Reactions were terminated by adding 120 µL of ACN containing internal standards. The final internal standard concentrations were: 0.1 µM for CYP2C19, CYP1A2, CYP3A4 (midazolam), and CYP2D6, 200 ng/mL for CYP3A4 (testosterone), 0.31 µM for CYP2C9, 0.36 µM (100 ng/mL) for CYP2B6, 40 ng/mL for CYP2C8. […]

The target of data set [3] is T3, CYP2C9 (Homo sapiens, UniProt P11712).
T3 construct: tissue Corning or Xenotech; host or cells: human liver microsomes
The data set is described as follows: CYP450 inhibition in human liver microsomes, CYP2C9. The note with it: pH 7.4, read-out: % CYP inhibition @ 10 µM 2C9.
Excerpt: as §1, §2, §3, §4, §5, §6

[4] abbreviates: pH 7.4, probe midazolam, midazolam substrate, read-out: % CYP inhibition @ 10 µM 3A4 (midazolam).
[5] abbreviates: pH 7.4, probe testosterone, testosterone substrate, read-out: % CYP inhibition @ 10 µM 3A4 (testosterone).

T3 sequence (P11712 whole entry): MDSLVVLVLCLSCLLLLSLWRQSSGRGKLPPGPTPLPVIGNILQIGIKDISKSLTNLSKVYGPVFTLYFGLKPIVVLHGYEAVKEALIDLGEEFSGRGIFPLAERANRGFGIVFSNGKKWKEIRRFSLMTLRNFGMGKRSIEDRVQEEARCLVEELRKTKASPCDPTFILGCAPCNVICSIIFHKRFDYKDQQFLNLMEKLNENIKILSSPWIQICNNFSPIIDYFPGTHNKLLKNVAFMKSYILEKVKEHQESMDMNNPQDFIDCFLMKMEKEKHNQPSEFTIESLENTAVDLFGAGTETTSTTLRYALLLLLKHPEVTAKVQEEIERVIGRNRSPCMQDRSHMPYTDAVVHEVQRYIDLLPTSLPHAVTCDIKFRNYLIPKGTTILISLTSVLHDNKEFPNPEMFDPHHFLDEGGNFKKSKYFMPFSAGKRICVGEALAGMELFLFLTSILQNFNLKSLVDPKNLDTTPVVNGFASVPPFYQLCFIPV
T2 sequence (P08684 whole entry): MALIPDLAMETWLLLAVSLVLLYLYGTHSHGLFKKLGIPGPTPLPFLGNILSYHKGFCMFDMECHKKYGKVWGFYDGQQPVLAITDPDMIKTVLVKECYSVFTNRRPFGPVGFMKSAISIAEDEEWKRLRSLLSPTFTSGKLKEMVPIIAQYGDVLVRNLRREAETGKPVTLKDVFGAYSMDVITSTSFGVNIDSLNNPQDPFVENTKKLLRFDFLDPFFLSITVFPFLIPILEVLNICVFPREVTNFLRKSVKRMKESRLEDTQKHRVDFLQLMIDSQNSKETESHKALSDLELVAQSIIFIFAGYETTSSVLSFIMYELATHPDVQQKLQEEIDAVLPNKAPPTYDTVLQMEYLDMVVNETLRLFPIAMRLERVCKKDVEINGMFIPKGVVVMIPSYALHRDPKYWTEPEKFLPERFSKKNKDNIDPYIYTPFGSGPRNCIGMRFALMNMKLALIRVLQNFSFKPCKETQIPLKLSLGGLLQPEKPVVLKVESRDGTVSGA

Turning to `CC1(n2c(-c3ccc(NC(=O)C(=O)Nc4ccc(N5CCC6(CCOC6)CC5)cc4)cc3)cc3cc(F)c(-c4nnn[nH]4)cc32)CCC1` [Example 68], the values for the inhibition at 10 min, 10 µM in data set [1] and in data set [3] were 42.1% and 6.51%, respectively. Also, the inhibition (as a rule, the relative decrease from the control value, in per cent) at 5 min, 10 µM in data set [2] (setting [4]) was -10.2%; in data set [2] (setting [5]) it was 2.46%.

Take `O=C(Nc1ccc(-c2cc3cc(F)c(-c4nnn[nH]4)cc3n2C2CCC2)cc1)C(=O)Nc1ccc(N2CCC(CO)CC2)cc1` [Example 23]: the values for the inhibition at 10 min, 10 µM in data set [1] and in data set [3] were 43.8% and -3.32%, respectively. For the same compound, the inhibition at 5 min, 10 µM in data set [2] (setting [4]) is 5.28%; in data set [2] (setting [5]) it was -22.6%.

For `O=C(Nc1ccc(-c2cc3cc(F)c(-c4nnn[nH]4)cc3n2C2CCC2)cc1)C(=O)Nc1ccc(N2CCC3(CCOC3)CC2)cc1` [Example 67], the inhibition at 10 min, 10 µM came out at 39.2% in data set [1] and 7.84% in data set [3]. The inhibition at 5 min, 10 µM in data set [2] (setting [4]) was 13%; in data set [2] (setting [5]), -0.87%.
